Experimental data taken from patent publication US12528818B2, “Compositions and methods for inhibition of RAS” (Leidos Biomedical Research, Inc., priority 2021, dated 2026).
Like-named read-outs stand apart in the source and are kept apart here.

Tested on: pERK in NCI-H358 cells
Assay: Cell-based pERK HTRF assay (pERK inhibition in H358 cells)
Conditions: pERK inhibition IC50, NCI-H358 cells, 30 min incubation, read-out: PERK in H358 cell

Compound	IC50 (Homo sapiens, NCI-H358, 0.5 h) [nM]	IC50 [nM]
C=CC(=O)NCCNc1nc(C2CCN(C)CC2)nc2c(F)c(-c3ccc(F)c4sc(N)nc34)c(Cl)cc12 [Compound 64]	> 1000	–
C=CC(=O)N(C)C1CN(c2nc(OCC34CCCN3CCC4)nc3c(F)c(-c4ccc(F)c5sc(N)nc45)c(Cl)cc23)C1 [Compound 167]	> 1000	–
C=CC(=O)N1CC(N(C)c2nc(OC[C@@]34CCCN3C[C@H](OC)C4)nc3c(F)c(-c4ccc(F)c5sc(N)nc45)c(C(F)(F)F)cc23)C1 [Compound 201]	100 to 1000	–
C=CC(=O)N1CC[C@@H](N(c2nc(OC[C@@]34CCCN3C[C@H](F)C4)nc3c(F)c(-c4ccc(F)c5sc(N)nc45)c(C(F)(F)F)cc23)C2CC2)C1 (single isomer, unassigned) [Compound 237]	–	> 1000
C=CC(=O)N1CCC(N(C)c2nc(OC[C@@H]3CCCN3C)nc3cc(-c4ccc(F)c5sc(N)c(C#N)c45)c(F)cc23)[C@H]1COC (some centres unmarked) [Compound 441]	100 to 1000	–
C=C(F)C(=O)N1C[C@H](C)N(c2nc(OC[C@@]34CCCN3C[C@H](F)C4)nc3c(F)c(-c4ccc(F)c5sc(N)nc45)c(C(F)(F)F)cc23)C[C@H]1C [Compound 203]	100 to 1000	–
C=CC(=O)N1CC[C@@H](N(C)c2nc(OC[C@@H]3CC(F)(F)CN3C)nc3c(F)c(-c4ccc(F)c5sc(N)nc45)c(C(F)(F)F)cc23)C1 (atropisomer, axis not shown) [Compound 229]	–	> 1000
C=C(F)C(=O)N1CCN(c2nc(OC[C@@]34CCCN3C[C@H](F)C4)nc3c(F)c(-c4ccc(F)c5sc(N)nc45)c(C(F)(F)F)cc23)CC1 [Compound 186]	100 to 1000	–
C=CC(=O)N1CCN(c2nc(OCC34CCCN3CCC4)nc3c(F)c(-c4ccc(F)c5sc(N)nc45)c(-c4ccoc4)cc23)CC1 [Compound 119]	> 1000	–
C=CC(=O)N1CCC(N(C)c2nc(OCCO)nc3c(F)c(-c4ccc(F)c5sc(N)c(C#N)c45)ccc23)[C@H]1C (some centres unmarked) [Compound 468]	100 to 1000	–
CC#CC(=O)N1CCN(c2nc(OC[C@@H]3CCCN3CCF)nc3c(F)c(-c4ccc(F)c5sc(N)nc45)c(C(F)(F)F)cc23)CC1 [Compound 154]	100 to 1000	–
C=CC(=O)N1CC[C@@H](Nc2nc(OC[C@@]34CCCN3C[C@H](F)C4)nc3c(F)c(-c4ccc(F)c5sc(N)nc45)c(C(F)(F)F)cc23)C1 (single isomer, unassigned) [Compound 272]	–	> 1000
C=CC(=O)N1CC[C@@H](N(C)c2nc(OC[C@@H]3CCCN3C)nc3c(F)c(-c4ccc(F)c5sc(N)nc45)c(C(F)(F)F)cc23)C1 [Compound 230]	100 to 1000	–
C=CC(=O)N1CC[C@@H](N(C)c2c(C#N)c(OC[C@@]34CCCN3C[C@H](F)C4)nc3c(F)c(-c4ccc(F)c5sc(N)nc45)c(Cl)cc23)C1 (atropisomer, axis not shown) [Compound 234]	> 1000	–
C=CC(=O)N1CC[C@@H](N(C)c2nc(OC[C@@H]3C[C@@H](F)CN3C3CC3)nc3c(F)c(-c4ccc(F)c5sc(N)nc45)c(C(F)(F)F)cc23)C1 [Compound 273]	100 to 1000	–
C=CC(=O)N1CC(N(C)c2nc(OCC34CCCN3CCC4)nc3c(F)c(-c4ccc(F)c5sc(N)nc45)c(Cl)cc23)C1 [Compound 84, 1-(3-((7-(2-amino-7-fluorobenzo[d]thiazol-4-yl)-6-chloro-8-fluoro-2-((tetrahydro-1H-pyrrolizin-7a(5H)-yl)methoxy)quinazolin-4-yl)(methyl)amino)azetidin-1-yl)prop-2-en-1-one]	100 to 1000	–
C=CC(=O)N1CCN(c2nc(OC[C@@]34CCCN3C[C@H](F)C4)nc3c(F)c(-c4ccc(F)c5sc(N)c(C#N)c45)c(C(F)(F)F)cc23)C[C@@H]1C [Compound 329]	< 100	–
CC#CC(=O)N1CC[C@@H]2[C@H]1CN2c1nc(OCC23CCCN2CCC3)nc2c(F)c(-c3ccc(F)c4sc(N)nc34)c(C(F)(F)F)cc12 [Compound 180]	> 1000	–
C=CC(=O)N1C[C@H](C)N(c2ncnc3c(F)c(-c4ccc(F)c5sc(N)c(C#N)c45)c(C(F)(F)F)cc23)C[C@H]1C [Compound 382]	< 100	–
C=CC(=O)N1C[C@H](N(C)c2nc(OC[C@@]34CCCN3C[C@H](F)C4)nc3c(F)c(-c4ccc(F)c5sc(N)c(C#N)c45)ccc23)C[C@H]1C [Compound 319]	< 100	–
C=CC(=O)N1C[C@H](C)N(c2nc(OC[C@@]34CCCN3C[C@H](OC)C4)nc3c(F)c(-c4ccc(F)c5sc(N)c(C#N)c45)c(C(F)(F)F)cc23)C[C@H]1C [Compound 341]	< 100	–
C=CC(=O)N1CCN(c2ncnc3c(F)c(-c4ccc(F)c5sc(N)nc45)c(Cl)c(OC)c23)CC1 [Compound 82]	< 100	–
C=CC(=O)N1CC[C@@H]2[C@H]1CN2c1nc(OC[C@@]23CCCN2C[C@H](F)C3)nc2c(F)c(-c3ccc(F)c4sc(N)c(C#N)c34)c(C(F)(F)F)cc12 [Compound 339]	< 100	–
C=CC(=O)N1CC(Nc2ncnc3c(F)c(-c4ccc(F)c5sc(N)nc45)cc(OC)c23)C1 [Compound 69, 1-(3-((7-(2-amino-7-fluorobenzo[d]thiazol-4-yl)-8-fluoro-5-methoxyquinazolin-4-yl)amino)azetidin-1-yl)prop-2-en-1-one]	> 1000	–
C=CC(=O)N1C[C@@H](F)[C@@H](N(C)c2nc(OC[C@@H]3C[C@@H](F)CN3C)nc3cc(-c4ccc(F)c5sc(N)c(C#N)c45)c(C(F)(F)F)cc23)C1 [Compound 356]	< 100	–
C=CC(=O)N1CCC(N(C)c2nc(OC[C@@H]3C[C@@H](F)CN3C)nc3c(F)c(-c4ccc(F)c5sc(N)c(C#N)c45)c(C(F)(F)F)cc23)[C@H]1COC (some centres unmarked) [Compound 443]	< 100	–
C=CC(=O)N1CC[C@@H](N(C)c2nc(OC[C@@]34CCCN3C[C@H](F)C4)nc3c(F)c(-c4ccc(F)c5sc(N)c(C#N)c45)c(C(F)(F)F)cc23)[C@H]1COC [Compound 401]	< 100	–
N#CN1CC(Nc2ncnc3c(F)c(-c4ccc(F)c5sc(N)nc45)c(C(F)(F)F)cc23)C1 [Compound 45]	< 100	–

Next, values leading:

IC50 (Homo sapiens, NCI-H358, 0.5 h) [nM]	IC50 [nM]	Compound
< 100	–	C=CC(=O)N1C[C@H](C)N(c2nc(OCC3(CN4CCOCC4)CC3)nc3c(F)c(-c4ccc(F)c5sc(N)nc45)c(C(F)(F)F)cc23)C[C@H]1C [Compound 285]
< 100	–	C=CC(=O)N1CCC(N(C)c2nc(OC[C@@H]3C[C@@H](F)CN3C)nc3cc(-c4ccc(F)c5sc(N)c(C#N)c45)c(C#N)cc23)[C@H]1COC (some centres unmarked) [Compound 444]
< 100	–	C=CC(=O)N1C[C@H](C)N(c2nc(OC[C@@]34CCCN3C[C@H](F)C4)nc3c(F)c(-c4ccc(F)c5sc(N)c(C#N)c45)ccc23)C[C@H]1C [Compound 312]
< 100	–	C=CC(=O)N1C[C@H](C)N(c2nc(OC[C@@]34CCCN3C[C@H](F)C4)nc3cc(-c4ccc(F)c5sc(N)nc45)c(C(F)(F)F)cc23)C[C@H]1C [Compound 299]
< 100	–	C=CC(=O)N1CCC(N(C)c2nc(OC[C@@H]3CCCN3C)nc3c(F)c(-c4ccc(F)c5sc(N)c(C#N)c45)c(Cl)cc23)[C@H]1C (some centres unmarked) [Compound 419]
< 100	–	C=CC(=O)N1CC[C@@H](N(C)c2nc(OC[C@@]34CCCN3C[C@H](F)C4)nc3cc(-c4ccc(F)c5sc(N)c(C#N)c45)c(C(F)(F)F)cc23)C1 [Compound 306]
< 100	–	C=CC(=O)N1CCC(N(C)c2nc(OC[C@@H]3CCCN3C)nc3c(F)c(-c4ccc(F)c5sc(N)c(C#N)c45)ccc23)[C@H]1C (some centres unmarked) [Compound 420]
< 100	–	C=CC(=O)N1CCC(N(CC)c2nc(OC[C@@H]3CC4(CC4)CN3C)nc3c(F)c(-c4ccc(F)c5sc(N)c(C#N)c45)c(C(F)(F)F)cc23)[C@H]1C (some centres unmarked) [Compound 405]
< 100	–	C=CC(=O)N1C[C@H](C)N(c2nc(OC[C@@]34CCCN3C[C@H](F)C4)nc3c(F)c(-c4ccc(F)c5sc(N)nc45)c(OC(F)(F)F)cc23)C[C@H]1C [Compound 235, 1-((2R,5S)-4-(7-(2-amino-7-fluorobenzo[d]thiazol-4-yl)-8-fluoro-2-(((2R,7aS)-2-fluorotetrahydro-1H-pyrrolizin-7a(5H)-yl)methoxy)-6-(trifluoromethoxy)quinazolin-4-yl)-2,5-dimethylpiperazin-1-yl)prop-2-en-1-one]
< 100	–	C=CC(=O)N1CC[C@@H](N(CC)c2nc(OC[C@@]34CCCN3C[C@H](F)C4)nc3c(F)c(-c4ccc(F)c5sc(N)c(C#N)c45)c(C(F)(F)F)cc23)C1 [Compound 348, 4-(4-(((R)-1-acryloylpyrrolidin-3-yl)(ethyl)amino)-8-fluoro-2-(((2R,7aS)-2-fluorotetrahydro-1H-pyrrolizin-7a(5H)-yl)methoxy)-6-(trifluoromethyl)quinazolin-7-yl)-2-amino-7-fluorobenzo[b]thiophene-3-carbonitrile]
< 100	–	C=CC(=O)N1C[C@@H](F)[C@@H](N(CC)c2nc(OC[C@@]34CCCN3C[C@H](F)C4)nc3cc(-c4ccc(F)c5sc(N)c(C#N)c45)c(Cl)cc23)C1 [Compound 370]
< 100	–	C=CC(=O)N1CC[C@@H](N(C)c2nc(OC[C@@]34CCCN3C[C@H](F)C4)nc3c(F)c(-c4ccc(F)c5sc(N)nc45)c(C(F)(F)F)cc23)C1 (single isomer, unassigned) [Compound 239]
< 100	–	C=CC(=O)N1C[C@H](C)N(c2nc(OCC34CCCN3CCC4)nc3c(F)c(-c4ccc(F)c5sc(N)c(C#N)c45)c(Cl)cc23)C[C@H]1C [Compound 366]
< 100	–	C=CC(=O)N1C[C@H](C)N(c2nc(OC[C@@]34CCCN3C[C@H](OC)C4)nc3c(F)c(-c4ccc(F)c5sc(N)c(C#N)c45)c(Cl)cc23)C[C@H]1C [Compound 367]
< 100	–	C=CC(=O)N1CCC(N(C)c2nc(OC[C@@]34CCCN3C[C@H](F)C4)nc3c(C#N)c(-c4ccc(F)c5sc(N)c(C#N)c45)c(Cl)cc23)[C@H]1C (stereo partly drawn) [Compound 388, 4-((1-acryloyl-2-methylpyrrolidin-3-yl)(methyl)amino)-7-(2-amino-3-cyano-7-fluorobenzo[b]thiophen-4-yl)-6-chloro-2-(((2R,7aS)-2-fluorotetrahydro-1H-pyrrolizin-7a(5H)-yl)methoxy)quinazoline-8-carbonitrile]
< 100	–	C=CC(=O)N1C[C@H](C)N(c2nc(N3CC(N4CC(O)C4)C3)nc3c(F)c(-c4ccc(F)c5sc(N)c(C#N)c45)c(C(F)(F)F)cc23)C[C@H]1C [Compound 328]
